The values that follow come from ChEMBL document CHEMBL1201862, “PubChem BioAssay data set” (2004).

Among the test systems are ACHN; HCT-15; HOP-92; IGROV-1; KM12; LOX IMVI; OVCAR-4; OVCAR-8; RPMI-8226; SK-MEL-28; SK-MEL-2; SK-OV-3; SN12C; SNB-19; UACC-62; UO-31; U-251; SR.
What all share (experiment): NCI tumour cell line growth inhibition, 48 h

Each structure is given as a SMILES string.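 In this assay, cells in 96-well plates receive the compound at five concentrations for 48 hours. Endpoints are linearly interpolated between the surrounding concentrations. Here, GI50 denotes the concentration required for 50% inhibition of growth.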 Activity calls are given as the source filed them. Rule as the data show it: active = GI50 up to about 1.1 µM and inactive = higher.

Consider `CC(C)N1CCOC(c2ccc(O)c(O)c2)C1` (configuration not stated), for which the GI50 is > 100 µM (inactive) in the assay with ACHN; more than 100 µM with HCT-15; > 100 µM (inactive) in the assay with HOP-92; > 100 µM (inactive) in the assay on IGROV-1; > 100 µM (inactive) with KM12; > 100 µM (inactive) in the assay with LOX IMVI. The GI50 with OVCAR-4, in the assay with OVCAR-8, in the assay with RPMI-8226, with SK-MEL-28, in the assay with SK-MEL-2 and in the assay on SK-OV-3 was > 100 µM (inactive) each time. Moreover, the GI50 in the assay with SN12C, in the assay on SNB-19, in the assay on UACC-62 and in the assay on UO-31 was > 100 µM (inactive) throughout.

With `NC(=S)N/N=C1/C(=O)N(c2ccc(Cl)cc2Cl)C(=O)C(=O)C1c1nc2ccccc2s1` (configuration not stated), the GI50 in the assay on ACHN was > 100 µM (inactive); in the assay on HCT-15, more than 100 µM; in the assay with HOP-92, > 100 µM (inactive); in the assay with IGROV-1, > 100 µM (inactive); in the assay on KM12, > 100 µM (inactive); in the assay on LOX IMVI, > 100 µM (inactive). The GI50 with OVCAR-4, with OVCAR-8, in the assay with RPMI-8226, in the assay on SK-MEL-28, with SK-MEL-2 and in the assay on SK-OV-3 was > 100 µM (inactive) in each case. In addition, the GI50 with SN12C, in the assay on SNB-19, in the assay on U-251, in the assay with UACC-62 and with UO-31 was > 100 µM (inactive) in each case.

Turning to `O=C1NC(=O)C2C1c1[nH]c3ccccc3c1C1CCCC12` (configuration not stated), the GI50 is 22.3 µM (inactive) in the assay on ACHN; 1.49 µM in the assay on HCT-15; 14.1 µM (inactive) in the assay on IGROV-1; 2.17 µM (inactive) with KM12; 3.52 µM (inactive) with LOX IMVI; 25.6 µM (inactive) with OVCAR-4. Further, the GI50 in the assay on OVCAR-8 was 4.93 µM (inactive); in the assay with RPMI-8226 it was 3.41 µM (inactive); in the assay on SK-MEL-28 it was 4.1 µM (inactive); with SK-OV-3, 4.49 µM (inactive); with SN12C, 6.87 µM (inactive); in the assay with SNB-19, 5.07 µM (inactive). Further, the GI50 was 2.81 µM (inactive) in the assay with SR, 3.1 µM (inactive) in the assay with U-251, 5.47 µM (inactive) with UACC-62 and 6.55 µM (inactive) with UO-31.

`C[N+](C)(C)CC(=O)N/N=C(\C(=O)Nc1ccc(Cl)cc1)C1C(=O)N(c2ccccc2)N=C1N` (configuration not stated): the GI50 is > 100 µM (inactive) in the assay with ACHN; more than 100 µM with HCT-15; > 100 µM (inactive) in the assay with HOP-92; > 100 µM (inactive) in the assay with IGROV-1; > 100 µM (inactive) in the assay on KM12; > 100 µM (inactive) with LOX IMVI. Also, the GI50 with OVCAR-4, in the assay on OVCAR-8, in the assay with RPMI-8226, in the assay on SK-MEL-28, with SK-MEL-2 and in the assay on SK-OV-3 was > 100 µM (inactive) in each case. Further, the GI50 in the assay on SN12C, in the assay with SNB-19, in the assay on U-251, with UACC-62 and in the assay on UO-31 was > 100 µM (inactive) in each case.

`CN(C(=O)C12C3C4C1C1C2C3C41I)C(C)(C)C` (configuration not stated): the GI50 is 98.9 µM (inactive) in the assay on ACHN; 63.1 µM in the assay on HCT-15; > 90.8 µM (inactive) in the assay on IGROV-1; > 100 µM (inactive) in the assay on KM12; > 100 µM (inactive) with LOX IMVI; > 100 µM (inactive) in the assay on OVCAR-4. In addition, the GI50 in the assay on OVCAR-8, in the assay on RPMI-8226, with SK-MEL-28, in the assay with SK-MEL-2, in the assay on SK-OV-3 and in the assay with SN12C was > 100 µM (inactive) in each case. The GI50 with SNB-19 was > 100 µM (inactive); in the assay on SR, > 29.4 µM (inactive); in the assay on U-251, > 91.2 µM (inactive); in the assay on UACC-62 it was > 83 µM (inactive); in the assay with UO-31, > 67.1 µM (inactive).

Regarding `N#CC(C(=O)/C(=N/NC(=O)c1ccccc1O)C(C#N)c1ccccc1)c1ccccc1` (configuration not stated), the GI50 was > 100 µM (inactive) with ACHN; more than 100 µM with HCT-15; > 100 µM (inactive) with HOP-92; > 100 µM (inactive) in the assay on IGROV-1; > 100 µM (inactive) in the assay on KM12; > 100 µM (inactive) with LOX IMVI. In addition, the GI50 with OVCAR-4, in the assay with OVCAR-8, in the assay on RPMI-8226, in the assay on SK-MEL-28, in the assay with SK-MEL-2 and in the assay with SK-OV-3 was > 100 µM (inactive) each time. In addition, the GI50 with SN12C, in the assay with U-251, with UACC-62 and in the assay with UO-31 was > 100 µM (inactive) throughout.

As to `Cc1nc(N)sc1C(=O)/C=C/c1ccc([N+](=O)[O-])cc1`, the GI50 in the assay with HCT-15 is more than 100 µM; in the assay on HOP-92, > 100 µM (inactive); with IGROV-1, > 100 µM (inactive); in the assay with KM12, > 100 µM (inactive); in the assay on LOX IMVI, > 100 µM (inactive); in the assay with OVCAR-8 it was > 100 µM (inactive). In addition, the GI50 in the assay on RPMI-8226, in the assay with SK-MEL-28, in the assay with SK-MEL-2, in the assay with SK-OV-3, in the assay on SN12C and in the assay on SNB-19 was > 100 µM (inactive) in each case. Moreover, the GI50 in the assay on U-251, in the assay on UACC-62 and with UO-31 was > 100 µM (inactive) in each case.

For the compound `COC(=O)C(C(=O)Cc1ccccc1[N+](=O)[O-])C(=O)OC`, the GI50 in the assay on ACHN is > 100 µM (inactive); with HCT-15 it was more than 100 µM; with HOP-92, > 100 µM (inactive); with IGROV-1, > 100 µM (inactive); with KM12, > 100 µM (inactive); with LOX IMVI it was > 100 µM (inactive). Moreover, the GI50 in the assay with OVCAR-4, with OVCAR-8, in the assay with SK-MEL-28, in the assay on SK-MEL-2, with SK-OV-3 and in the assay with SN12C was > 100 µM (inactive) throughout. Besides, the GI50 is > 100 µM (inactive) in the assay on SNB-19, 23.9 µM (inactive) with SR, > 100 µM (inactive) with UACC-62 and > 100 µM (inactive) in the assay with UO-31.

With `CCOC(=O)c1c2ccc(/C=C/C(=O)OC)ccc-2c(C(=O)OCC)c1N`, the GI50 was > 100 µM (inactive) with ACHN; more than 100 µM in the assay with HCT-15; > 100 µM (inactive) in the assay on HOP-92; > 100 µM (inactive) in the assay on IGROV-1; > 100 µM (inactive) with KM12; > 100 µM (inactive) in the assay with LOX IMVI. Also, the GI50 with OVCAR-4 is > 100 µM (inactive); in the assay on SK-MEL-28, 1.62 µM (inactive); in the assay with SK-MEL-2 it was > 100 µM (inactive); with SK-OV-3, > 100 µM (inactive); in the assay on SNB-19, > 100 µM (inactive); in the assay with UACC-62 it was > 100 µM (inactive). Also, in the assay with UO-31, the GI50 is > 100 µM (inactive).

As to `NC(=S)N/N=C/C(=C/Nc1ccccc1)[N+](=O)[O-]`, the GI50 was > 100 µM (inactive) in the assay with ACHN; more than 100 µM in the assay with HCT-15; > 100 µM (inactive) in the assay on HOP-92; > 100 µM (inactive) in the assay on IGROV-1; > 100 µM (inactive) with LOX IMVI; > 100 µM (inactive) in the assay with OVCAR-4. Besides, the GI50 in the assay on OVCAR-8, with RPMI-8226, in the assay with SK-MEL-28, in the assay with SK-MEL-2, in the assay with SK-OV-3 and in the assay on SN12C was > 100 µM (inactive) in each case. The GI50 in the assay on SNB-19 and in the assay with UACC-62 was > 100 µM (inactive) throughout.

In the case of `CC(C)NCCCC(C)Nc1ccnc2ccc3nn(C)nc3c12` (configuration not stated), the GI50 was 61.2 µM (inactive) in the assay with ACHN; > 100 µM (inactive) in the assay with IGROV-1; 50.8 µM (inactive) with KM12; 33.6 µM (inactive) in the assay with LOX IMVI; 43.6 µM (inactive) with OVCAR-8; 74.8 µM (inactive) in the assay with RPMI-8226. The GI50 is > 100 µM (inactive) in the assay with SK-OV-3; 61.8 µM (inactive) in the assay with SN12C; > 100 µM (inactive) in the assay on SNB-19; 40.1 µM (inactive) in the assay with SR; > 100 µM (inactive) with U-251; > 100 µM (inactive) with UACC-62. Further, the GI50 with UO-31 is 33.7 µM (inactive).

As to `O=C(Nc1cc(Cl)cc(Cl)c1)/C(Cc1nc2ccccc2nc1O)=N/NC(=O)c1ccncc1`, the GI50 is > 100 µM (inactive) with ACHN; more than 100 µM in the assay with HCT-15; 14.4 µM (inactive) in the assay with HOP-92; > 100 µM (inactive) with IGROV-1; > 100 µM (inactive) with KM12; > 100 µM (inactive) in the assay with LOX IMVI. In addition, the GI50 in the assay with OVCAR-4, with OVCAR-8, in the assay with RPMI-8226, with SK-MEL-2, in the assay with SK-OV-3 and with SNB-19 was > 100 µM (inactive) in each case. The GI50 with U-251, with UACC-62 and with UO-31 was > 100 µM (inactive) each time.

For `O=C(/C=C/c1ccc(Cl)cc1)c1ccc(Cl)c(Cl)c1`, the GI50 with ACHN was 29 µM (inactive); in the assay with HCT-15 it was 26 µM; in the assay with HOP-92 it was > 10 µM (inactive); in the assay on IGROV-1, 22.3 µM (inactive); in the assay with KM12, 9.31 µM (inactive); with LOX IMVI it was 15.2 µM (inactive). Besides, the GI50 in the assay on OVCAR-4 is 26.4 µM (inactive); in the assay on OVCAR-8 it was 20.6 µM (inactive); in the assay with RPMI-8226 it was 2.95 µM (inactive); with SK-MEL-28, 17.3 µM (inactive); with SK-MEL-2, 23.4 µM (inactive); with SK-OV-3, 26.4 µM (inactive). For the same compound, the GI50 with SN12C is 9.1 µM (inactive); with SNB-19, 23.7 µM (inactive); in the assay with U-251, 11.2 µM (inactive); with UACC-62, 23.7 µM (inactive); in the assay on UO-31, 28.5 µM (inactive).
